Source: ChEMBL document CHEMBL4184140, “Expanding the tetrahydroquinoline pharmacophore” (Bioorg Med Chem Lett, 2017)
Calls of active or inactive are those of the source. The rule behind the calls is not given here.

System: Mycobacterium tuberculosis variant bovis
Assay: Antitubercular activity against Mycobacterium bovis
Type: functional, organism-based

Structure (SMILES)	Activity
COC(=O)C[C@@H]1[C@H](C(=O)OC)c2ccccc2N(C(C)=O)[C@@H]1c1ccccc1	inactive
Cc1ccccc1[C@H]1Nc2ccccc2[C@H]2C=CC[C@H]21	inactive
Brc1ccc2c(c1)[C@H]1C=CC[C@H]1[C@@H](c1ccccc1)N2	inactive
C=CCO[C@H]1C(n2cc(-c3ccccc3)nn2)C[C@@H]2[C@H]1c1ccccc1N(C(C)=O)[C@@H]2c1ccccc1 (single isomer, unassigned)	inactive
O[C@@H]1[C@@H]2c3ccccc3N[C@H](c3cccc(Br)c3)[C@@H]2C[C@@H]1O	inactive
CC(=O)N1c2ccccc2[C@@H]2[C@@H](C[C@@H]3O[C@H]23)[C@H]1c1cccc(Br)c1	inactive
CC(=O)N1c2ccc(Br)cc2[C@H]2C=CC[C@H]2[C@H]1c1ccccc1	inactive
CC(=O)N1c2ccccc2[C@H]2[C@@H](O)[C@H](N=[N+]=[N-])C[C@H]2[C@H]1c1ccccc1	inactive
O[C@@H]1[C@@H]2c3ccccc3N[C@H](c3ccc(Cl)cc3)[C@@H]2C[C@@H]1O	inactive
CC(=O)N1c2cc([N+](=O)[O-])ccc2[C@H]2C=CC[C@H]2[C@H]1c1ccccc1	inactive
CC(=O)N1c2ccccc2[C@H]2C=CC[C@H]2[C@H]1c1cccc(Br)c1	inactive
Cc1ccccc1[C@H]1Nc2ccccc2[C@H]2[C@@H](O)[C@@H](O)C[C@H]21	inactive
CC(=O)N1c2ccccc2[C@H]2C=CC[C@H]2[C@H]1c1ccccc1	inactive
Brc1cccc([C@H]2Nc3ccccc3[C@H]3C=CC[C@H]32)c1	inactive
O[C@@H]1[C@@H]2c3ccc(F)cc3N[C@H](c3ccccc3)[C@@H]2C[C@@H]1O	inactive
CC(=O)N1c2ccccc2[C@H]2[C@@H](O)[C@@H](O)C[C@H]2[C@H]1c1ccccc1	inactive
C=CCO[C@@H]1[C@@H]2c3ccccc3N(C(C)=O)[C@H](c3ccc(Cl)cc3)[C@@H]2C[C@H]1N=[N+]=[N-]	inactive

Structure (SMILES)	Activity
CC(=O)N1c2ccccc2[C@@H]2[C@@H](C[C@@H]3O[C@H]23)[C@H]1c1ccccc1	inactive
O=[N+]([O-])c1ccc2c(c1)N[C@H](c1ccccc1)[C@@H]1CC=C[C@H]21	inactive
C=CCO[C@@H]1[C@@H]2c3ccccc3N(C(C)=O)[C@H](c3cccc(Br)c3)[C@@H]2C[C@H]1N=[N+]=[N-]	inactive
O[C@@H]1[C@@H]2c3cc(Br)ccc3N[C@H](c3ccccc3)[C@@H]2C[C@@H]1O	inactive
CC(=O)N1c2cc([N+](=O)[O-])ccc2[C@@H]2[C@@H](C[C@@H]3O[C@H]23)[C@H]1c1ccccc1	inactive
CC(=O)N1c2cc([N+](=O)[O-])ccc2[C@H]2[C@@H](O)[C@H](N=[N+]=[N-])C[C@H]2[C@H]1c1ccccc1	inactive
C=CCO[C@@H]1[C@@H]2c3ccccc3N(C(C)=O)[C@H](c3ccccc3)[C@@H]2C[C@H]1N=[N+]=[N-]	inactive
CC(=O)N1c2ccccc2[C@H]2C=CC[C@H]2[C@H]1c1ccc(Cl)cc1	inactive
O=[N+]([O-])c1ccc2c(c1)N[C@H](c1ccccc1)[C@@H]1C[C@H](O)[C@H](O)[C@H]21	inactive
Clc1ccc([C@H]2Nc3ccccc3[C@H]3C=CC[C@H]32)cc1	inactive
CC(=O)N1c2ccccc2[C@H]2C=CC[C@H]2[C@H]1c1ccccc1C	inactive
O[C@@H]1[C@@H]2c3ccccc3N[C@H](c3ccccc3)[C@@H]2C[C@@H]1O	inactive
C1=C[C@@H]2c3ccccc3N[C@H](c3ccccc3)[C@@H]2C1	inactive
CC(=O)N1c2ccccc2[C@H]2[C@@H](O)[C@H](N=[N+]=[N-])C[C@H]2[C@H]1c1ccc(Cl)cc1	inactive
CC(=O)N1c2ccccc2[C@@H]2[C@@H](C[C@@H]3O[C@H]23)[C@H]1c1ccc(Cl)cc1	inactive
CC(=O)N1c2ccccc2[C@H]2[C@@H](O)[C@H](N=[N+]=[N-])C[C@H]2[C@H]1c1cccc(Br)c1	inactive
Fc1ccc2c(c1)N[C@H](c1ccccc1)[C@@H]1CC=C[C@H]21	inactive
